# Test system: Acinetobacter baumannii-calcoaceticus species complex clinical isolates
# Assay: MIC of triple combinations (Compound 1, sulbactam, meropenem or cefepime), 141 clinical isolates
# Format: cell-based
# Settings: Acinetobacter
# Text: For a more comprehensive assessment of the ability of test compounds to potentiate sulbactam in triple combinations with β-lactams additional MIC assays were utilized.
smiles,measurement,setting,value
"CC1(C)[C@H](C(=O)O)N2C(=O)C[C@H]2S1(=O)=O [SUL, Sulbactam]",MIC,,128 µg/mL
same,MIC,"strain 990089, Cmpd 1 at 4 μg/mL in combinations",16 µg/mL
same,MIC,"strain 993131, Cmpd 1 at 4 μg/mL in combinations",32 µg/mL
same,MIC,"strain 993139, Cmpd 1 at 4 μg/mL in combinations",32 µg/mL
same,MIC,"strain 994180, Cmpd 1 at 4 μg/mL in combinations",16 µg/mL
same,MIC,"strain 994181, Cmpd 1 at 4 μg/mL in combinations",16 µg/mL
same,MIC,"strain 995771, Cmpd 1 at 4 μg/mL in combinations",16 µg/mL
same,MIC,"strain 996612, Cmpd 1 at 4 μg/mL in combinations",64 µg/mL
same,MIC,"strain 996707, Cmpd 1 at 4 μg/mL in combinations",32 µg/mL
same,MIC,"strain 996869, Cmpd 1 at 4 μg/mL in combinations",32 µg/mL
same,MIC,"strain 997574, Cmpd 1 at 4 μg/mL in combinations",32 µg/mL
same,MIC,"strain 998107, Cmpd 1 at 4 μg/mL in combinations",16 µg/mL
same,MIC,"strain 998532, Cmpd 1 at 4 μg/mL in combinations",16 µg/mL
same,MIC,"strain 998898, Cmpd 1 at 4 μg/mL in combinations",64 µg/mL
same,MIC,"strain 998907, Cmpd 1 at 4 μg/mL in combinations",32 µg/mL
same,MIC,"strain 999306, Cmpd 1 at 4 μg/mL in combinations",8 µg/mL
same,MIC,"strain 999343, Cmpd 1 at 4 μg/mL in combinations",32 µg/mL
same,MIC,"strain 1001007, Cmpd 1 at 4 μg/mL in combinations",32 µg/mL
same,MIC,"strain 1001143, Cmpd 1 at 4 μg/mL in combinations",32 µg/mL
same,MIC,"strain 1001611, Cmpd 1 at 4 μg/mL in combinations",16 µg/mL
same,MIC,"strain 1002208, Cmpd 1 at 4 μg/mL in combinations",16 µg/mL
same,MIC,"strain 1002247, Cmpd 1 at 4 μg/mL in combinations",64 µg/mL
same,MIC,"strain 1002688, Cmpd 1 at 4 μg/mL in combinations",16 µg/mL
same,MIC,"strain 1002952, Cmpd 1 at 4 μg/mL in combinations",64 µg/mL
same,MIC,"strain 1003557, Cmpd 1 at 4 μg/mL in combinations",8 µg/mL
same,MIC,"strain 1003662, Cmpd 1 at 4 μg/mL in combinations",16 µg/mL
same,MIC,"strain 1003787, Cmpd 1 at 4 μg/mL in combinations",32 µg/mL
same,MIC,"strain 1004867, Cmpd 1 at 4 μg/mL in combinations",64 µg/mL
same,MIC,"strain 1005265, Cmpd 1 at 4 μg/mL in combinations",32 µg/mL
same,MIC,"strain 1005290, Cmpd 1 at 4 μg/mL in combinations",16 µg/mL
same,MIC,"strain 1007660, Cmpd 1 at 4 μg/mL in combinations",32 µg/mL
same,MIC,"strain 1008508, Cmpd 1 at 4 μg/mL in combinations",16 µg/mL
same,MIC,"strain 1008510, Cmpd 1 at 4 μg/mL in combinations",32 µg/mL
same,MIC,"strain 1008730, Cmpd 1 at 4 μg/mL in combinations",32 µg/mL
same,MIC,"strain 1008756, Cmpd 1 at 4 μg/mL in combinations",64 µg/mL
same,MIC,"strain 1010245, Cmpd 1 at 4 μg/mL in combinations",16 µg/mL
same,MIC,"strain 1010383, Cmpd 1 at 4 μg/mL in combinations",32 µg/mL
same,MIC,"strain 1011959, Cmpd 1 at 4 μg/mL in combinations",16 µg/mL
same,MIC,"strain 1013022, Cmpd 1 at 4 μg/mL in combinations",8 µg/mL
same,MIC,"strain 1013035, Cmpd 1 at 4 μg/mL in combinations",16 µg/mL
same,MIC,"strain 1013055, Cmpd 1 at 4 μg/mL in combinations",16 µg/mL
same,MIC,"strain 1013322, Cmpd 1 at 4 μg/mL in combinations",16 µg/mL
same,MIC,"strain 1014143, Cmpd 1 at 4 μg/mL in combinations",32 µg/mL
same,MIC,"strain 1014646, Cmpd 1 at 4 μg/mL in combinations",16 µg/mL
same,MIC,"strain 1014815, Cmpd 1 at 4 μg/mL in combinations",64 µg/mL
same,MIC,"strain 1014866, Cmpd 1 at 4 μg/mL in combinations",32 µg/mL
same,MIC,"strain 1014878, Cmpd 1 at 4 μg/mL in combinations",32 µg/mL
same,MIC,"strain 1014890, Cmpd 1 at 4 μg/mL in combinations",32 µg/mL
same,MIC,"strain 1016545, Cmpd 1 at 4 μg/mL in combinations",16 µg/mL
same,MIC,"strain 1016836, Cmpd 1 at 4 μg/mL in combinations",32 µg/mL
same,MIC,"strain 1017679, Cmpd 1 at 4 μg/mL in combinations",32 µg/mL
same,MIC,"strain 1018109, Cmpd 1 at 4 μg/mL in combinations",4 µg/mL
same,MIC,"strain 1018801, Cmpd 1 at 4 μg/mL in combinations",64 µg/mL
same,MIC,"strain 1018802, Cmpd 1 at 4 μg/mL in combinations",64 µg/mL
same,MIC,"strain 1018804, Cmpd 1 at 4 μg/mL in combinations",32 µg/mL
same,MIC,"strain 1018806, Cmpd 1 at 4 μg/mL in combinations",64 µg/mL
same,MIC,"strain 1018807, Cmpd 1 at 4 μg/mL in combinations",32 µg/mL
same,MIC,"strain 1018851, Cmpd 1 at 4 μg/mL in combinations",64 µg/mL
same,MIC,"strain 1023034, Cmpd 1 at 4 μg/mL in combinations",16 µg/mL
same,MIC,"strain 1023074, Cmpd 1 at 4 μg/mL in combinations",32 µg/mL
same,MIC,"strain 1023207, Cmpd 1 at 4 μg/mL in combinations",16 µg/mL
same,MIC,"strain 1023329, Cmpd 1 at 4 μg/mL in combinations",16 µg/mL
same,MIC,"strain 1024119, Cmpd 1 at 4 μg/mL in combinations",32 µg/mL
same,MIC,"strain 1024215, Cmpd 1 at 4 μg/mL in combinations",16 µg/mL
same,MIC,"strain 1026990, Cmpd 1 at 4 μg/mL in combinations",16 µg/mL
same,MIC,"strain 1026992, Cmpd 1 at 4 μg/mL in combinations",16 µg/mL
same,MIC,"strain 1027234, Cmpd 1 at 4 μg/mL in combinations",8 µg/mL
same,MIC,"strain 1027590, Cmpd 1 at 4 μg/mL in combinations",32 µg/mL
same,MIC,"strain 1027603, Cmpd 1 at 4 μg/mL in combinations",8 µg/mL
same,MIC,"strain 1027748, Cmpd 1 at 4 μg/mL in combinations",8 µg/mL
same,MIC,"strain 1028193, Cmpd 1 at 4 μg/mL in combinations",64 µg/mL
same,MIC,"strain 1029770, Cmpd 1 at 4 μg/mL in combinations",32 µg/mL
same,MIC,"strain 1029913, Cmpd 1 at 4 μg/mL in combinations",16 µg/mL
same,MIC,"strain 1030427, Cmpd 1 at 4 μg/mL in combinations",16 µg/mL
same,MIC,"strain 1030928, Cmpd 1 at 4 μg/mL in combinations",64 µg/mL
same,MIC,"strain 1030945, Cmpd 1 at 4 μg/mL in combinations",32 µg/mL
same,MIC,"strain 1031136, Cmpd 1 at 4 μg/mL in combinations",32 µg/mL
same,MIC,"strain 1031167, Cmpd 1 at 4 μg/mL in combinations",64 µg/mL
same,MIC,"strain 1031177, Cmpd 1 at 4 μg/mL in combinations",16 µg/mL
same,MIC,"strain 1031191, Cmpd 1 at 4 μg/mL in combinations",16 µg/mL
same,MIC,"strain 1031211, Cmpd 1 at 4 μg/mL in combinations",32 µg/mL
same,MIC,"strain 1031238, Cmpd 1 at 4 μg/mL in combinations",32 µg/mL
same,MIC,"strain 1031566, Cmpd 1 at 4 μg/mL in combinations",32 µg/mL
same,MIC,"strain 1032669, Cmpd 1 at 4 μg/mL in combinations",16 µg/mL
same,MIC,"strain 1032761, Cmpd 1 at 4 μg/mL in combinations",64 µg/mL
same,MIC,"strain 1033340, Cmpd 1 at 4 μg/mL in combinations",16 µg/mL
same,MIC,"strain 1033979, Cmpd 1 at 4 μg/mL in combinations",64 µg/mL
same,MIC,"strain 1034048, Cmpd 1 at 4 μg/mL in combinations",32 µg/mL
same,MIC,"strain 1034880, Cmpd 1 at 4 μg/mL in combinations",32 µg/mL
same,MIC,"strain 1034912, Cmpd 1 at 4 μg/mL in combinations",32 µg/mL
same,MIC,"strain 1034913, Cmpd 1 at 4 μg/mL in combinations",32 µg/mL
same,MIC,"strain 1034916, Cmpd 1 at 4 μg/mL in combinations",64 µg/mL
same,MIC,"strain 1034925, Cmpd 1 at 4 μg/mL in combinations",32 µg/mL
same,MIC,"strain 1034931, Cmpd 1 at 4 μg/mL in combinations",16 µg/mL
same,MIC,"strain 1034951, Cmpd 1 at 4 μg/mL in combinations",32 µg/mL
same,MIC,"strain 1034962, Cmpd 1 at 4 μg/mL in combinations",32 µg/mL
same,MIC,"strain 1035144, Cmpd 1 at 4 μg/mL in combinations",32 µg/mL
